Molecules are shown by their SMILES.

In the test the target is T1, human TLR7 (Homo sapiens, UniProt Q9NYK1).
T1 construct: host or cells: HEK293 (HEK-Blue hTLR7)
T1 sequence (Q9NYK1 27-1049): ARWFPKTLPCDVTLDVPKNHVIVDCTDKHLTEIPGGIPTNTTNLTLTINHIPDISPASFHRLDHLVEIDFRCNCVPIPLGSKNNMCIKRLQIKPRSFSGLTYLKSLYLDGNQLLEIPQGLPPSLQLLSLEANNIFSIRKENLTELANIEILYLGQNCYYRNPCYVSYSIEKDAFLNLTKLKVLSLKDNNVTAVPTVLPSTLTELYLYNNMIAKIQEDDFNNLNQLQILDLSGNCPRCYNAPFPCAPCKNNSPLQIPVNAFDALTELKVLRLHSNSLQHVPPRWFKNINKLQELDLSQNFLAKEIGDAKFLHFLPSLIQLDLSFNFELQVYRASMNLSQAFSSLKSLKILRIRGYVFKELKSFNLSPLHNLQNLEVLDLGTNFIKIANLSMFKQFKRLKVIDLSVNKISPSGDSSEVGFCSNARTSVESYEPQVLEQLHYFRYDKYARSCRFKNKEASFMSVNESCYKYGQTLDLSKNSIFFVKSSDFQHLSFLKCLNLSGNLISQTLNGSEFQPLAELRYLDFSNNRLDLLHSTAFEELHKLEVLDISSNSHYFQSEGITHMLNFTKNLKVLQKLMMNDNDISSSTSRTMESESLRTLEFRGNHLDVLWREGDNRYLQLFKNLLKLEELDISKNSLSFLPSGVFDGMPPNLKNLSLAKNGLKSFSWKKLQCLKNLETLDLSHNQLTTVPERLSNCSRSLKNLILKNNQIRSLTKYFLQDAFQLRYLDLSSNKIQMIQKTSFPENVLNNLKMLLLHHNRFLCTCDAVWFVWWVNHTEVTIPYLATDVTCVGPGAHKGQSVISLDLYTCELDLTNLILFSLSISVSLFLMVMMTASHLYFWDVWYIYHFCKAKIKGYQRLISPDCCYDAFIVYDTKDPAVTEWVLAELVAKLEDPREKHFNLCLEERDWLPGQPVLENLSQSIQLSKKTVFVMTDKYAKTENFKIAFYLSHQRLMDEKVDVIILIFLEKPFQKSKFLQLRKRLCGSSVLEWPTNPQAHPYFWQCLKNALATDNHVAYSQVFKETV
The experiment in a line: HEK293-Blue-hTLR-7 cells assay (SEAP reporter, R848 stimulation). The format is cell-based. The conditions noted are these: HEK293-Blue-hTLR7 cells, R848, 20 hrs; read-out: HEK/hTLR7 IC50. Here is the method:
The following tests were carried out in order to determine the activity of the compounds of formula (I) and (Ia) in HEK293-Blue-hTLR-7/8/9 cells assay.
A stable HEK293-Blue-hTLR-7 cell line was purchased from InvivoGen (Cat. #: hkb-htlr7, San Diego, California, USA). These cells were originally designed for studying the stimulation of human TLR7 by monitoring the activation of NF-κB. A SEAP (secreted embryonic alkaline phosphatase) reporter gene was placed under the control of the IFN-β minimal promoter fused to five NF-κB and AP-1-binding sites. The SEAP was induced by activating NF-κB and AP-1 via stimulating HEK-Blue hTLR7 cells with TLR7 ligands. Therefore the reporter expression w % as declined by TLR7 antagonist under the stimulation of a ligand, such as R848 (Resiquimod), for incubation of 20 hrs. The cell culture supernatant SEAP reporter activity was determined using QUANTI-Blue™ kit (Cat. #: rep-qb1, Invivogen, San Diego, Ca, USA) at a wavelength of 640 nm, a detection medium that turns purple or blue in the presence of alkaline phosphatase.
HEK293-Blue-hTLR7 cells were incubated at a density of 250,000˜450,000 cells/mL in a volume of 170 μL in a 96-well plate in Dulbecco's Modified Eagle's medium (DMEM) containing 4.5 g/L glucose, 50 U/mL penicillin, […], […] Normocin, 2 mM L-glutamine, 10% (v/v) heat-inactivated fetal bovine serum with addition of 20 μL test compound in a serial dilution in the presence of final DMSO at 1% and 10 μL of 20 uM R848 in above DMEM, perform incubation under 37° C. in a C02 incubator for 20 hrs. Then 20 μL of the supernatant from each well was incubated with 180 μL Quanti-blue substrate solution at 37° C. for 2 hrs and the absorbance was read at 620˜655 nm using a spectrophotometer. The signaling pathway that TLR7 activation leads to downstream NF-κB activation has been widely accepted, and therefore similar reporter assay was modified for evaluating TLR7 antagonist.
For `Cc1cc(N2Cc3ccc(N4CCC(O)(CN(C)C)CC4)cc3[C@@H](C)C2)c2cnn(C)c2n1` [Example 14, 4-[(dimethylamino)methyl]-1-[(4R)-2-(1,6-dimethylpyrazolo[3,4-b]pyridin-4-yl)-4-methyl-3,4-dihydro-1H-isoquinolin-6-yl]piperidin-4-ol], the IC50 stood at 8 nM.
Next, `C[C@H]1CN(c2ccnc3c2cnn3C)Cc2ccc(N3C[C@H]4CNCCN4C3=O)cc21` [Example 24, (8aR)-2-[(4R)-4-methyl-2-(1-methylpyrazolo[3,4-b]pyridin-4-yl)-3,4-dihydro-1H-isoquinolin-6-yl]-1,5,6,7,8,8a-hexahydroimidazo[1,5-a]pyrazin-3-one]: 10 nM; `C[C@H]1CN(c2ccnc3c2cnn3C)Cc2ccc(N3CCN(Cc4cn(C)cn4)CC3)cc21` [Example 37, (4R)-4-methyl-6-[4-[(1-methylimidazol-4-yl)methyl]piperazin-1-yl]-2-(1-methylpyrazolo[3,4-b]pyridin-4-yl)-3,4-dihydro-1H-isoquinoline]: 14 nM; `C[C@H]1CN(c2ccnc3c2cnn3C)Cc2ccc(N3CCC(N4CC(N)C4)CC3)cc21` [Example 28, 1-[1-[(4R)-4-methyl-2-(1-methylpyrazolo[3,4-b]pyridin-4-yl)-3,4-dihydro-1H-isoquinolin-6-yl]-4-piperidyl]azetidin-3-amine]: 4 nM.
As to `Cc1cc(N2Cc3cnc(O[C@@H]4C[C@H]5CNCCN5C4)cc3[C@@H](C)C2)c2cnn(C)c2n1` [Example 76, (4R)-2-(1,6-dimethylpyrazolo[3,4-b]pyridin-4-yl)-4-methyl-6-[[(7R,8aS)-1,2,3,4,6,7,8,8a-octahydropyrrolo[1,2-a]pyrazin-7-yl]oxy]-3,4-dihydro-1H-2,7-naphthyridine], the IC50 is 19 nM.
Then `C[C@H]1CN(c2ccnc3c2cnn3C)Cc2ccc(OC[C@H]3CNCCN3C)cc21` [Example 43, (4R)-4-methyl-2-(1-methylpyrazolo[3,4-b]pyridin-4-yl)-6-[[(2R)-1-methylpiperazin-2-yl]methoxy]-3,4-dihydro-1H-isoquinoline], with 8 nM; and `C[C@H]1CN(c2ccnc3c2cnn3C)Cc2ccc(N3CCN(C(=O)C4CCCN4)CC3)cc21` (stereo partly drawn) [Example 8, pyrrolidin-2-yl-[4-[(4R)-4-methyl-2-(1-methylpyrazolo[3,4-b]pyridin-4-yl)-3,4-dihydro-1H-isoquinolin-6-yl]piperazin-1-yl]methanone], with 6 nM.
Next, `Cc1cc(N2Cc3ccc(N4C[C@@H](N)[C@H](O)C4)cc3[C@@H](C)C2)c2cnn(C)c2n1` [Example 47, trans-4-amino-1-[(4R)-2-(1,6-dimethylpyrazolo[3,4-b]pyridin-4-yl)-4-methyl-3,4-dihydro-1H-isoquinolin-6-yl]pyrrolidin-3-ol]: 13 nM.
Then `CO[C@H]1CN(c2cc3c(cn2)CN(c2cc(C)nc4c2cnn4C)C[C@@H]3C)CC[C@@H]1N` [Example 73, (3S,4S)-3-methoxy-1-[(5R)-7-(1,6-dimethylpyrazolo[3,4-b]pyridin-4-yl)-5-methyl-6,8-dihydro-5H-2,7-naphthyridin-3-yl]piperidin-4-amine], with 4 nM; and `C[C@H]1CN(c2ccnc3c2cnn3C)Cc2ccc(N3CCN(C(=O)C4CNCCO4)CC3)cc21` (stereo partly drawn) [Example 12, morpholin-2-yl-[4-[(4R)-4-methyl-2-(1-methylpyrazolo[3,4-b]pyridin-4-yl)-3,4-dihydro-1H-isoquinolin-6-yl]piperazin-1-yl]methanone], with 9 nM.
Regarding `C[C@H]1CN(c2ccnc3c2cnn3C)Cc2ccc(N3C[C@@H](N)[C@H](O)C3)cc21` [Example 46, trans-4-amino-1-[(4R)-4-methyl-2-(1-methylpyrazolo[3,4-b]pyridin-4-yl)-3,4-dihydro-1H-isoquinolin-6-yl]pyrrolidin-3-ol], the IC50 amounted to 10 nM.
